Assay results from ChEMBL document CHEMBL3272271, “Folate antagonists. 13. 2,4-Diamino-6-](alpha,alpha,alpha-trifluoro-m-tolyl)thio]quinazoline and related 2,4-diamino-6-[(phenyl- and naphthyl)thio]quinazolines, a unique class of antimetabolites with extraordinary antimalarial and antibacterial effects” (J Med Chem, 1978).
Values after ≈ are worked out from the molar mass of the structure shown. Active and inactive are the calls of the source. The rule behind the calls is not given here.

Legend:
Plasmodium berghei [1] = assay: Antimalarial activity against Plasmodium berghei infected in mouse assessed as disease cure from parasite infection at 320 mg/kg, sc administered 72 hrs after infection; type: functional, organism-based; set-up: dose 320 mg/kg
Plasmodium berghei [2] = assay: Antimalarial activity against trophozoite-induced Plasmodium berghei infected in mouse assessed as daily dose required to suppression of 90% parasite infection administered with diet for 6 days; type: functional
Plasmodium berghei [3] = assay: Antimalarial activity against Plasmodium berghei infected in mouse assessed as disease cure from parasite infection at 160 mg/kg, sc administered 72 hrs after infection; type: functional, organism-based; set-up: dose 160 mg/kg
Plasmodium gallinaceum [4] = assay: Antimalarial activity against trophozoite-induced Plasmodium gallinaceum infected in white leghorn chicken assessed as increase in mean survival days of host at 20 mg/kg, sc administered 72 hrs after infection relative to control; type: functional; conditions: route subcutaneous
Plasmodium gallinaceum [5] = assay: Antimalarial activity against trophozoite-induced Plasmodium gallinaceum infected in white leghorn chicken assessed as increase in mean survival days of host at 40 mg/kg, sc administered 72 hrs after infection relative to control; type: functional; conditions: route subcutaneous
Mus musculus = assay: Toxicity in Plasmodium berghei infected mouse assessed as mortality at 640 mg/kg, sc administered 72 hrs after infection measured after 2 to 5 days; type: organism-based; set-up: dose 640 mg/kg, route subcutaneous; conditions: in vivo
Plasmodium berghei [6] = assay: Antimalarial activity against Plasmodium berghei infected in mouse assessed as increase in mean survival days of host at 5 mg/kg, sc administered 72 hrs after infection relative to control; type: functional; conditions: route subcutaneous
Shigella sonnei = assay: Antibacterial activity against Shigella sonnei C-10 by gradient plate test; type: functional
Plasmodium berghei [7] = assay: Antimalarial activity against Plasmodium berghei infected in mouse assessed as increase in mean survival days of host at 40 mg/kg, sc administered 72 hrs after infection relative to control; type: functional; conditions: route subcutaneous
Plasmodium gallinaceum [8] = assay: Antimalarial activity against trophozoite-induced Plasmodium gallinaceum infected in white leghorn chicken assessed as disease cure from parasite infection at 160 mg/kg, sc administered 72 hrs after infection; type: functional, organism-based; set-up: dose 160 mg/kg
Plasmodium gallinaceum [9] = assay: Antimalarial activity against trophozoite-induced Plasmodium gallinaceum infected in white leghorn chicken assessed as increase in mean survival days of host at 5 mg/kg, sc administered 72 hrs after infection relative to control; type: functional; conditions: route subcutaneous
Plasmodium gallinaceum [10] = assay: Antimalarial activity against trophozoite-induced Plasmodium gallinaceum infected in white leghorn chicken assessed as increase in mean survival days of host at 160 mg/kg, sc administered 72 hrs after infection relative to control; type: functional; conditions: route subcutaneous
Escherichia coli = assay: Antibacterial activity against Escherichia coli Vogel by gradient plate test; type: functional
Plasmodium gallinaceum [11] = assay: Antimalarial activity against trophozoite-induced Plasmodium gallinaceum infected in white leghorn chicken assessed as increase in mean survival days of host at 2.5 mg/kg, sc administered 72 hrs after infection relative to control; type: functional; conditions: route subcutaneous
Plasmodium gallinaceum [12] = assay: Antimalarial activity against trophozoite-induced Plasmodium gallinaceum infected in white leghorn chicken assessed as increase in mean survival days of host at 10 mg/kg, sc administered 72 hrs after infection relative to control; type: functional; conditions: route subcutaneous
Plasmodium gallinaceum [13] = assay: Antimalarial activity against trophozoite-induced Plasmodium gallinaceum infected in white leghorn chicken assessed as increase in mean survival days of host at 0.63 mg/kg, sc administered 72 hrs after infection relative to control; type: functional; conditions: route subcutaneous
Plasmodium berghei [14] = assay: Antimalarial activity against Plasmodium berghei infected in mouse assessed as increase in mean survival days of host at 10 mg/kg, sc administered 72 hrs after infection relative to control; type: functional; conditions: route subcutaneous
Plasmodium gallinaceum [15] = assay: Antimalarial activity against trophozoite-induced Plasmodium gallinaceum infected in white leghorn chicken assessed as increase in mean survival days of host at 320 mg/kg, sc administered 72 hrs after infection relative to control; type: functional; conditions: route subcutaneous
Plasmodium gallinaceum [16] = assay: Antimalarial activity against trophozoite-induced Plasmodium gallinaceum infected in white leghorn chicken assessed as increase in mean survival days of host at 1.25 mg/kg, sc administered 72 hrs after infection relative to control; type: functional; conditions: route subcutaneous
Plasmodium berghei [17] = assay: Antimalarial activity against Plasmodium berghei infected in mouse assessed as increase in mean survival days of host at 1.25 mg/kg, sc administered 72 hrs after infection relative to control; type: functional; conditions: route subcutaneous
Pseudomonas aeruginosa = assay: Antibacterial activity against Pseudomonas aeruginosa 28 by gradient plate test; type: functional
Plasmodium berghei [18] = assay: Antimalarial activity against Plasmodium berghei infected in mouse assessed as disease cure from parasite infection at 640 mg/kg, sc administered 72 hrs after infection; type: functional, organism-based; set-up: dose 640 mg/kg
Staphylococcus aureus [19] = assay: Antibacterial activity against drug-resistant Staphylococcus aureus S18713 by gradient plate test; type: functional
Plasmodium berghei [20] = assay: Ratio of quinine hydrochloride SD90 to compound SD90 for trophozoite-induced Plasmodium berghei infected in mouse assessed as daily dose required to suppression of 90% parasite infection administered with diet for 6 days; type: functional
Plasmodium gallinaceum [21] = assay: Antimalarial activity against trophozoite-induced Plasmodium gallinaceum infected in white leghorn chicken assessed as disease cure from parasite infection at 320 mg/kg, sc administered 72 hrs after infection; type: functional, organism-based; set-up: dose 320 mg/kg
Plasmodium berghei [22] = assay: Antimalarial activity against Plasmodium berghei infected in mouse assessed as disease cure from parasite infection at 40 mg/kg, sc administered 72 hrs after infection; type: functional, organism-based; set-up: dose 40 mg/kg
Plasmodium gallinaceum [23] = assay: Antimalarial activity against trophozoite-induced Plasmodium gallinaceum infected in white leghorn chicken assessed as increase in mean survival days of host at 80 mg/kg, sc administered 72 hrs after infection relative to control; type: functional; conditions: route subcutaneous
Plasmodium berghei [24] = assay: Antimalarial activity against Plasmodium berghei infected in mouse assessed as disease cure from parasite infection at 80 mg/kg, sc administered 72 hrs after infection; type: functional, organism-based; set-up: dose 80 mg/kg
Plasmodium berghei [25] = assay: Antimalarial activity against Plasmodium berghei infected in mouse assessed as increase in mean survival days of host at 20 mg/kg, sc administered 72 hrs after infection relative to control; type: functional; conditions: route subcutaneous
Enterococcus faecalis = assay: Antibacterial activity against Streptococcus faecalis MGH-2 by gradient plate test; type: functional
Plasmodium berghei [26] = assay: Antimalarial activity against Plasmodium berghei infected in mouse assessed as increase in mean survival days of host at 2.5 mg/kg, sc administered 72 hrs after infection relative to control; type: functional; conditions: route subcutaneous
Staphylococcus aureus [27] = assay: Antibacterial activity against Staphylococcus aureus UC-96 by gradient plate test; type: functional
Plasmodium gallinaceum [28] = assay: Antimalarial activity against sporozoite-induced Plasmodium gallinaceum infected in white leghorn chicken assessed as disease cure from parasite infection at 60 mg/kg, sc administered 72 hrs after infection; type: functional, organism-based; set-up: dose 60 mg/kg
Plasmodium gallinaceum [29] = assay: Antimalarial activity against sporozoite-induced Plasmodium gallinaceum infected in white leghorn chicken assessed as increase in mean survival days of host at 15 mg/kg, sc administered 72 hrs after infection relative to control; type: functional; conditions: route subcutaneous
Plasmodium gallinaceum [30] = assay: Antimalarial activity against sporozoite-induced Plasmodium gallinaceum infected in white leghorn chicken assessed as disease cure from parasite infection at 480 mg/kg, sc administered 72 hrs after infection; type: functional, organism-based; set-up: dose 480 mg/kg
Plasmodium gallinaceum [31] = assay: Antimalarial activity against sporozoite-induced Plasmodium gallinaceum infected in white leghorn chicken assessed as disease cure from parasite infection at 120 mg/kg, sc administered 72 hrs after infection; type: functional, organism-based; set-up: dose 120 mg/kg
Plasmodium gallinaceum [32] = assay: Antimalarial activity against sporozoite-induced Plasmodium gallinaceum infected in white leghorn chicken assessed as increase in mean survival days of host at 30 mg/kg, sc administered 72 hrs after infection relative to control; type: functional; conditions: route subcutaneous
Plasmodium berghei [33] = assay: Antimalarial activity against Plasmodium berghei infected in mouse assessed as increase in mean survival days of host at 80 mg/kg, sc administered 72 hrs after infection relative to control; type: functional; conditions: route subcutaneous
Plasmodium gallinaceum [34] = assay: Antimalarial activity against sporozoite-induced Plasmodium gallinaceum infected in white leghorn chicken assessed as disease cure from parasite infection at 15 mg/kg, sc administered 72 hrs after infection; type: functional, organism-based; set-up: dose 15 mg/kg
Plasmodium gallinaceum [35] = assay: Antimalarial activity against sporozoite-induced Plasmodium gallinaceum infected in white leghorn chicken assessed as disease cure from parasite infection at 30 mg/kg, sc administered 72 hrs after infection; type: functional, organism-based; set-up: dose 30 mg/kg
Plasmodium berghei [36] = assay: Antimalarial activity against Plasmodium berghei infected in mouse assessed as increase in mean survival days of host at 160 mg/kg, sc administered 72 hrs after infection relative to control; type: functional; conditions: route subcutaneous
Plasmodium gallinaceum [37] = assay: Antimalarial activity against sporozoite-induced Plasmodium gallinaceum infected in white leghorn chicken assessed as disease cure from parasite infection at 240 mg/kg, sc administered 72 hrs after infection; type: functional, organism-based; set-up: dose 240 mg/kg

| SMILES | Activity (Plasmodium berghei [1]) | Activity (Plasmodium berghei [3]) | MST (Plasmodium berghei [6]) | MIC (Shigella sonnei) | MST (Plasmodium berghei [7]) | MIC (Escherichia coli) | MST (Plasmodium berghei [14]) | MIC (Pseudomonas aeruginosa) | Activity (Plasmodium berghei [18]) | MIC (Staphylococcus aureus [19]) | Activity (Plasmodium berghei [24]) | MST (Plasmodium berghei [25]) | MIC (Enterococcus faecalis) | MST (Plasmodium berghei [26]) | MIC (Staphylococcus aureus [27]) | also measured |
| --- | --- | --- | --- | --- | --- | --- | --- | --- | --- | --- | --- | --- | --- | --- | --- | --- |
| Cc1ccccc1Sc1ccc2nc(N)nc(N)c2c1 | Active | Active | 7.3 days | 1 µg/mL (≈ 3.54 µM) | 17 days | < 0.25 µg/mL | 9.9 days | > 25 µg/mL | Active | < 0.25 µg/mL | Active | 10.5 days | < 0.25 µg/mL | 5.5 days | < 0.25 µg/mL | SD90 (Plasmodium berghei [2]): 4.1 mg/kg/day; MST (Plasmodium gallinaceum [4]): 7.6 days; MST (Plasmodium gallinaceum [5]): 11 days; Activity (Mus musculus): Toxic; Activity (Plasmodium gallinaceum [8]): Active; MST (Plasmodium gallinaceum [9]): 2.4 days; MST (Plasmodium gallinaceum [10]): 17 days; MST (Plasmodium gallinaceum [11]): 0 days; MST (Plasmodium gallinaceum [12]): 6.6 days; MST (Plasmodium gallinaceum [13]): 0 days; MST (Plasmodium gallinaceum [15]): 16 days; MST (Plasmodium gallinaceum [16]): 0 days; MST (Plasmodium berghei [17]): 1.1 days; Ratio (Plasmodium berghei [20]): 18; Activity (Plasmodium gallinaceum [21]): Active; Activity (Plasmodium berghei [22]): Active; MST (Plasmodium gallinaceum [23]): 12 days |
| Nc1nc(N)c2cc(Sc3c(F)c(F)cc(F)c3F)ccc2n1 | Active | Active | 0.3 days | 15 µg/mL (≈ 44.1 µM) | 6.1 days | 2 µg/mL (≈ 5.88 µM) | 0.5 days | > 25 µg/mL | Active | < 0.25 µg/mL | Active | 2.7 days | < 0.25 µg/mL | 0.3 days | < 0.25 µg/mL | Activity (Plasmodium gallinaceum [28]): Active; MST (Plasmodium gallinaceum [29]): 1.7 days; Activity (Plasmodium gallinaceum [30]): Active; Activity (Plasmodium gallinaceum [31]): Active; MST (Plasmodium gallinaceum [32]): 2.7 days; MST (Plasmodium berghei [33]): 8.9 days; Activity (Plasmodium gallinaceum [34]): Active; Activity (Plasmodium gallinaceum [35]): Active; MST (Plasmodium berghei [36]): 14.9 days; Activity (Plasmodium gallinaceum [37]): Active |
